# According to patent EP0336446A1, “Gene and gene product for the production of beta-lactam-compounds” (BIOCHEMIE GESELLSCHAFT M.B.H., priority 1988, dated 1989):
# Key:
# PAT [1] = biological target: T1, PAT (Penicillium chrysogenum, UniProt P15802); test: Microbiological agar diffusion test (Micrococcus luteus ATCC 9341/BC 85) of transacylation of Isopenicillin N with PaCoA by enzyme preparation AS-Präzipitat; format: biochemical, Penicillium chrysogenum P2/ATCC 48271
# Protocol: (§1) Die, wie in Beispiel 2 beschrieben, hergestellte Enzymrohpräzipitation wird im mikrobiologischen Agardiffusionstest hinsichtlich Transacylierung von 6-APA bzw. Isopenicillin N mit PaCoA und Spaltung von Kalium Penicillin V mit bzw. ohne Inhibitorzusatz folgendermaßen getestet: Testkeim: Micrococcus luteus ATCC 9341/BC 85, 0,5% Einsaat Testmedium: Antibiotic Medium 1 (DIFCO), 110 ml Testplatte: Nunc 243x243x18 mm Probe: 50 µl pro Näpfchen (6 mm Durchmesser) Inkubation: 37°, 15 Stunden Enzym: AS-Präzipitat (hergestellt wie in Beispiel 2 beschrieben): 1 ml zentrifugiert (20.000 Upm/10 min), Überstand verworfen, Pellet in 20 ml RP + Z resuspendiert. RP + Z: 0,1 M Phosphatpuffer pH 7,5 + 1 mM DTT + 10 mM MgCl₂
# Sofort bzw. nach 7, 30 und 60 Minuten Inkubationszeit werden 20 µl Aliquots der Ansätze entnommen, 1:5 mit 50% Ethanol (Stoppen der Enzymreaktion) verdünnt und im Agardiffusionstest auf Penicillingehalt getestet.
# [2] = system: Micrococcus luteus ATCC 9341/BC 85; test: Agar diffusion test of penicillin standards (inhibition zone diameter); format: cell-based
# PAT [3] = biological target: T1, PAT; test: Substrate specificity of purified PAT (fraction AL 278/2), specific enzyme activity by HPLC; format: biochemical, Penicillium chrysogenum P2/ATCC 48271
# PAT [4] = biological target: T1, PAT; test: Penicillin V cleavage by AS-Präzipitat, residual penicillin by agar diffusion test; format: biochemical, Penicillium chrysogenum P2/ATCC 48271
# Protocol: as §1
# [5] = labelled substance = Acylakzeptor, Acyldonator PaCoA
# T1 sequence (P15802 103-357 limits assumed): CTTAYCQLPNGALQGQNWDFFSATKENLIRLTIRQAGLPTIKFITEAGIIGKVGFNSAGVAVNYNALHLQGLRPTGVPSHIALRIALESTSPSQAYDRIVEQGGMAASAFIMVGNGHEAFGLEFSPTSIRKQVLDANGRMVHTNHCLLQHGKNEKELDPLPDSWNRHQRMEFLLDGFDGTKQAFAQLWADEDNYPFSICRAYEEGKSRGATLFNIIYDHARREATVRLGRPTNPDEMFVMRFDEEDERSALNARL
# T1 sequence (P15802 1-102 limits assumed): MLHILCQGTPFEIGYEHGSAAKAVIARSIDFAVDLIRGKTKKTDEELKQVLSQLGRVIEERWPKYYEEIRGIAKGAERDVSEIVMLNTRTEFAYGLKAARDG
smiles,measurement,setting,value
"CC1(C)S[C@@H]2[C@H](NC(=O)CCC[C@H](N)C(=O)O)C(=O)N2[C@H]1C(=O)O [Isopenicillin N Nr. 28, Isopenicillin N]",Transacylierung von Isopenicillin N (#28 u 36) mit PaCoA (HH ⌀ mm),"PAT [1]; a) ohne Inhibitor, 7′, listed as Nr. 28",25.5 mm
same,Transacylierung von Isopenicillin N (#28 u 36) mit PaCoA (HH ⌀ mm),"PAT [1]; a) ohne Inhibitor, 30′, listed as Nr. 28",26.0 mm
same,Transacylierung von Isopenicillin N (#28 u 36) mit PaCoA (HH ⌀ mm),"PAT [1]; a) ohne Inhibitor, 60′, listed as Nr. 28",23.0 mm
same,Transacylierung von Isopenicillin N (#28 u 36) mit PaCoA (HH ⌀ mm),"PAT [1]; a) ohne Inhibitor, s (sofort), listed as Nr. 28",22.5 mm
same,Transacylierung von Isopenicillin N (#28 u 36) mit PaCoA (HH ⌀ mm),"PAT [1]; b) 2 mM Jodacetamid, 7′, listed as Nr. 28",20.8 mm
same,Transacylierung von Isopenicillin N (#28 u 36) mit PaCoA (HH ⌀ mm),"PAT [1]; b) 2 mM Jodacetamid, 30′, listed as Nr. 28",18.3 mm
same,Transacylierung von Isopenicillin N (#28 u 36) mit PaCoA (HH ⌀ mm),"PAT [1]; b) 2 mM Jodacetamid, 60′, listed as Nr. 28",14.7 mm
same,Transacylierung von Isopenicillin N (#28 u 36) mit PaCoA (HH ⌀ mm),"PAT [1]; b) 2 mM Jodacetamid, s (sofort), listed as Nr. 28",21.1 mm
same,Transacylierung von Isopenicillin N (#28 u 36) mit PaCoA (HH ⌀ mm),"PAT [1]; c) 2 mM PMSF, 7′, listed as Nr. 28",24.7 mm
same,Transacylierung von Isopenicillin N (#28 u 36) mit PaCoA (HH ⌀ mm),"PAT [1]; c) 2 mM PMSF, 30′, listed as Nr. 28",25.7 mm
same,Transacylierung von Isopenicillin N (#28 u 36) mit PaCoA (HH ⌀ mm),"PAT [1]; c) 2 mM PMSF, 60′, listed as Nr. 28",20.7 mm
same,Transacylierung von Isopenicillin N (#28 u 36) mit PaCoA (HH ⌀ mm),"PAT [1]; c) 2 mM PMSF, s (sofort), listed as Nr. 28",22.7 mm
same,zone of inhibition at 12.5 µg/mL,"[2]; Micrococcus luteus, ATCC9341, 15 h, read-out: HH ⌀ mm, Isopenicillin N Std. 12.5 µg/ml",12.4 mm
same,zone of inhibition at 25 µg/mL,"[2]; Micrococcus luteus, ATCC9341, 15 h, read-out: HH ⌀ mm, Isopenicillin N Std. 25 µg/ml",16.5 mm
same,zone of inhibition at 50 µg/mL,"[2]; Micrococcus luteus, ATCC9341, 15 h, read-out: HH ⌀ mm, Isopenicillin N Std. 50 µg/ml",20 mm
"CC1(C)S[C@@H]2[C@H](NC(=O)CCC[C@H](N)C(=O)O)C(=O)N2[C@H]1C(=O)O [Isopenicillin N Nr. 36, Isopenicillin N]",Transacylierung von Isopenicillin N (#28 u 36) mit PaCoA (HH ⌀ mm),"PAT [1]; a) ohne Inhibitor, 7′, listed as Nr. 36",28.3 mm
same,Transacylierung von Isopenicillin N (#28 u 36) mit PaCoA (HH ⌀ mm),"PAT [1]; a) ohne Inhibitor, 30′, listed as Nr. 36",30.8 mm
same,Transacylierung von Isopenicillin N (#28 u 36) mit PaCoA (HH ⌀ mm),"PAT [1]; a) ohne Inhibitor, 60′, listed as Nr. 36",28.7 mm
same,Transacylierung von Isopenicillin N (#28 u 36) mit PaCoA (HH ⌀ mm),"PAT [1]; a) ohne Inhibitor, s (sofort), listed as Nr. 36",27.0 mm
same,Transacylierung von Isopenicillin N (#28 u 36) mit PaCoA (HH ⌀ mm),"PAT [1]; b) 2 mM Jodacetamid, 7′, listed as Nr. 36",25.0 mm
same,Transacylierung von Isopenicillin N (#28 u 36) mit PaCoA (HH ⌀ mm),"PAT [1]; b) 2 mM Jodacetamid, 30′, listed as Nr. 36",23.6 mm
same,Transacylierung von Isopenicillin N (#28 u 36) mit PaCoA (HH ⌀ mm),"PAT [1]; b) 2 mM Jodacetamid, 60′, listed as Nr. 36",22.1 mm
same,Transacylierung von Isopenicillin N (#28 u 36) mit PaCoA (HH ⌀ mm),"PAT [1]; b) 2 mM Jodacetamid, s (sofort), listed as Nr. 36",25.2 mm
same,Transacylierung von Isopenicillin N (#28 u 36) mit PaCoA (HH ⌀ mm),"PAT [1]; c) 2 mM PMSF, 7′, listed as Nr. 36",27.2 mm
same,Transacylierung von Isopenicillin N (#28 u 36) mit PaCoA (HH ⌀ mm),"PAT [1]; c) 2 mM PMSF, 30′, listed as Nr. 36",27.7 mm
same,Transacylierung von Isopenicillin N (#28 u 36) mit PaCoA (HH ⌀ mm),"PAT [1]; c) 2 mM PMSF, 60′, listed as Nr. 36",26.7 mm
same,Transacylierung von Isopenicillin N (#28 u 36) mit PaCoA (HH ⌀ mm),"PAT [1]; c) 2 mM PMSF, s (sofort), listed as Nr. 36",26.3 mm
same,HH ⌀ mm,[2]; Isopenicillin N Std. 12.5 µg/ml,18.4 mm
same,HH ⌀ mm,[2]; Isopenicillin N Std. 25 µg/ml,22.1 mm
same,HH ⌀ mm,[2]; Isopenicillin N Std. 50 µg/ml,24.5 mm
CC1(C)S[C@@H]2[C@H](NC(=O)Cc3ccccc3)C(=O)N2[C@H]1C(=O)O [Penicillin G],mittels HPLC bestimmte spezifische Enzymaktivität (mU/mg Protein) A1 278/2,PAT [3]; [5],25 mU/mg Protein
same,mittels HPLC bestimmte spezifische Enzymaktivität (mU/mg Protein) A1 278/2,"PAT [3]; labelled substance = Acyldonator, Acylakzeptor H₂O, Produkt 6-APA",17 mU/mg Protein
CC(=O)OCC1=C(C(=O)O)N2C(=O)[C@@H](NC(=O)CCC[C@@H](N)C(=O)O)[C@H]2SC1 [Cephalosporin C],mittels HPLC bestimmte spezifische Enzymaktivität (mU/mg Protein) A1 278/2,PAT [3]; [5],0 mU/mg Protein
CC1(C)S[C@@H]2[C@H](NC(=O)COc3ccccc3)C(=O)N2[C@H]1C(=O)O [Kalium Penicillin V],Spaltung von Kalium Penicillin V (HH ⌀ mm),"PAT [4]; a) ohne Inhibitor, 7′",21.8 mm
same,Spaltung von Kalium Penicillin V (HH ⌀ mm),"PAT [4]; a) ohne Inhibitor, 30′",0 mm
same,Spaltung von Kalium Penicillin V (HH ⌀ mm),"PAT [4]; a) ohne Inhibitor, 60′",0 mm
same,Spaltung von Kalium Penicillin V (HH ⌀ mm),"PAT [4]; a) ohne Inhibitor, s",25.7 mm
same,Spaltung von Kalium Penicillin V (HH ⌀ mm),"PAT [4]; b) + 2 mM Jodacetamid, 7′",23.1 mm
same,Spaltung von Kalium Penicillin V (HH ⌀ mm),"PAT [4]; b) + 2 mM Jodacetamid, 30′",0 mm
same,Spaltung von Kalium Penicillin V (HH ⌀ mm),"PAT [4]; b) + 2 mM Jodacetamid, 60′",0 mm
same,Spaltung von Kalium Penicillin V (HH ⌀ mm),"PAT [4]; b) + 2 mM Jodacetamid, s",25.7 mm
same,Spaltung von Kalium Penicillin V (HH ⌀ mm),"PAT [4]; c) + 2 mM Ethylmaleinimid, 7′",23.0 mm
same,Spaltung von Kalium Penicillin V (HH ⌀ mm),"PAT [4]; c) + 2 mM Ethylmaleinimid, 30′",0 mm
same,Spaltung von Kalium Penicillin V (HH ⌀ mm),"PAT [4]; c) + 2 mM Ethylmaleinimid, 60′",0 mm
same,Spaltung von Kalium Penicillin V (HH ⌀ mm),"PAT [4]; c) + 2 mM Ethylmaleinimid, s",25.0 mm
same,Spaltung von Kalium Penicillin V (HH ⌀ mm),"PAT [4]; d) + 2 mM PMSF, 7′",0 mm
same,Spaltung von Kalium Penicillin V (HH ⌀ mm),"PAT [4]; d) + 2 mM PMSF, 30′",0 mm
same,Spaltung von Kalium Penicillin V (HH ⌀ mm),"PAT [4]; d) + 2 mM PMSF, 60′",0 mm
same,Spaltung von Kalium Penicillin V (HH ⌀ mm),"PAT [4]; d) + 2 mM PMSF, s",25.3 mm
same,HH ⌀ mm,[2]; Penicillin V Std. 0.25 µg/ml,11.9 mm
same,HH ⌀ mm,[2]; Penicillin V Std. 0.5 µg/ml,18.4 mm
same,HH ⌀ mm,[2]; Penicillin V Std. 1.0 µg/ml,23.4 mm
same,HH ⌀ mm,[2]; Penicillin V Std. 1.5 µg/ml,24.7 mm
same,HH ⌀ mm,[2]; Penicillin V Std. 2.0 µg/ml,27.4 mm
CC(=O)OCC1=C(C(=O)O)N2C(=O)[C@@H](N)[C@H]2SC1 [7-ACA],mittels HPLC bestimmte spezifische Enzymaktivität (mU/mg Protein) A1 278/2,PAT [3]; [5],0 mU/mg Protein
